In US5540937A, “Process for preparing microspheres for the prolonged release of the LHRH hormone and its analogues, microspheres and formulations obtained” (Rhone Merieux, priority 1992, dated 1996):

Experiment: solubility of the peptide in the continuous phase
Assay type: physicochemical
Conditions: continuous aqueous phase (demineralized water containing 1% PVA)
From the text: Although the solubility of this peptide in water is high, high encapsulation yields are obtained.

CC(C)C[C@H](NC(=O)[C@@H](Cc1c[nH]c2ccccc12)NC(=O)[C@H](Cc1ccc(O)cc1)NC(=O)[C@H](CO)NC(=O)[C@H](Cc1c[nH]c2ccccc12)NC(=O)[C@H](Cc1c[nH]cn1)NC(=O)[C@@H]1CCC(=O)N1)C(=O)N[C@@H](CCCNC(=N)N)C(=O)N1CCC[C@H]1C(=O)NCC(N)=O [[D-Trp^6]-LHRH]
solubility in the continuous phase: about 45 mg/ml
